In ChEMBL document CHEMBL1201862, “PubChem BioAssay data set” (2004):
Values belong to the compound of their own block, whether it stands above or below them. Calls of active or inactive are those of the source.

Experiments:
[1] = Trypanosoma cruzi growth suppression in host cells – NIH3T3 host cells, beta-gal luminescence, confirmation (AID 2044); assay type: functional, cell-based;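 further: intracellular parasites grown in NIH/3T3 mouse fibroblasts as host cells; luminescent beta-galactosidase reporter signal from transgenic T. cruzi replicating inside host cells; inhibitors lower the luminescence signal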
INS1 = assay: INS-1E survival protection against cytokine death – cell-based, luminescence, retest, dose response (AID 449756); assay type: functional; details: Rattus norvegicus;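 further: cell death triggered by IL-1 beta plus TNF-alpha plus IFN-gamma mixture; protective hits raise ATP signal compared with cytokine alone wells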
[2] = HEK-293T cell viability reduction – luminescence, B-cell screen hits, cytotoxicity control for BCR NF-kB inhibitor project, dose response (AID 489021); assay type: functional, cell-based;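 further: HEK-293T cells carrying an NF-kB luciferase reporter; cells exposed to compound for about 14 hours before viability readout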
[3] = NIH3T3 cell viability loss – ATP luminescence, mouse fibroblasts, counter-screen, dose response (AID 2010); assay type: functional, cell-based;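 further: cells exposed to compound for about 90 hours before reading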
[4] = target: Acyl-homoserine lactone acylase PvdQ (Pseudomonas aeruginosa (strain LESB58), UniProt Q9I194); assay: PvdQ acylase enzyme activity blockers – biochemical, fluorescence, plate reader and imaging, cherry-picks, dose response (AID 493231)
Chain of Acyl-homoserine lactone acylase PvdQ (Q9I194 24-193 limits assumed): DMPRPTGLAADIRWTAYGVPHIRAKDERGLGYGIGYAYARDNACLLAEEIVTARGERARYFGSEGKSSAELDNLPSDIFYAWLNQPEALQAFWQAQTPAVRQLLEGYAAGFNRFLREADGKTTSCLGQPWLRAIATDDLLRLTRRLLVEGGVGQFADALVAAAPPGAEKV
Chain of Acyl-homoserine lactone acylase PvdQ (Q9I194 217-762 limits assumed): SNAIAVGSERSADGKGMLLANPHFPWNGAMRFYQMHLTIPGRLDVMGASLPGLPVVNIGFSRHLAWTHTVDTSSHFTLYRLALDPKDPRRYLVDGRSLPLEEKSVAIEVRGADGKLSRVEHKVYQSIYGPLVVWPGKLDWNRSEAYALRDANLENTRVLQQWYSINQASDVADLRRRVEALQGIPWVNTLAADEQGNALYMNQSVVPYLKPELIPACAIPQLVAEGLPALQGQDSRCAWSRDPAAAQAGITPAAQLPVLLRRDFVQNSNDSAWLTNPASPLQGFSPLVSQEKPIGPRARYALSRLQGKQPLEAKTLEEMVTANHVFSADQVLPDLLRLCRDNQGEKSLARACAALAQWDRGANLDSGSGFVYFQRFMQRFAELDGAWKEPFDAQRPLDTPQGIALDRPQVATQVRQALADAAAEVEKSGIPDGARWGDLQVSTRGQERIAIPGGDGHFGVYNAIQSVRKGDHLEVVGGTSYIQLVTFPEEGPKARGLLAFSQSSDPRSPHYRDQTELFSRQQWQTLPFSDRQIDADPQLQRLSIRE

[5] = target: Lysosomal acid glucosylceramidase (Homo sapiens, UniProt P04062); assay: Dose response cell-based high throughput screening assay to identify enhancers of beta-glucosidase activity. [Related pubchem assays: 784 ]; assay type: functional
Chain of Lysosomal acid glucosylceramidase (P04062 whole entry): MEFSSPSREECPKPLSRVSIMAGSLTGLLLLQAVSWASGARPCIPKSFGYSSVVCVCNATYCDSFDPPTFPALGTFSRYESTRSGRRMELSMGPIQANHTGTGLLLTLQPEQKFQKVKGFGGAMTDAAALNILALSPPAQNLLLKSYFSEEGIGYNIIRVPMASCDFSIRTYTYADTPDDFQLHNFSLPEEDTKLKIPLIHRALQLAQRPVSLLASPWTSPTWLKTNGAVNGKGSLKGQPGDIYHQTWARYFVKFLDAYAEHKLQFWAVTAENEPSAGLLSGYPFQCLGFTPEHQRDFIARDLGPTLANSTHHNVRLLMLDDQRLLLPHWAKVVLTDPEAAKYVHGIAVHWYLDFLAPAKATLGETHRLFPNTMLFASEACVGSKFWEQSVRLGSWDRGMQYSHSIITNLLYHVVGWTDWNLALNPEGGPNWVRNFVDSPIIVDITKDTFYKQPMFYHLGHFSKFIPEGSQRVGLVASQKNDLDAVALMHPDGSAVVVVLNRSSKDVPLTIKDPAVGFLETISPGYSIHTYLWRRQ

Escherichia coli = assay: microbe, parasite or virus in culture
[6] = target: Eukaryotic translation initiation factor 4E (Mus musculus, UniProt P63073); assay: blockers of eIF4G binding by eIF4E – biochemical, TR-FRET, dose response (AID 855); assay type: functional;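 further: potency for disrupting eIF4E binding to eIF4GI seen as loss of FRET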
Chain of Eukaryotic translation initiation factor 4E (P63073 whole entry): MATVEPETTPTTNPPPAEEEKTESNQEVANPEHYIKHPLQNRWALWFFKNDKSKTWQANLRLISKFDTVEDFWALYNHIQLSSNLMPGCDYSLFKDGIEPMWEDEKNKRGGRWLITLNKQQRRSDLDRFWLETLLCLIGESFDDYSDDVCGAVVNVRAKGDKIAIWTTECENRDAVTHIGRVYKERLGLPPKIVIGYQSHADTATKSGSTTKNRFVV

[7] = target: T1, Calpain-2 catalytic subunit (Sus scrofa, UniProt P43367); assay: m-calpain protease blockers, concentration series – biochemical, fluorogenic peptide substrate, dose response (AID 1420); assay type: functional
T1 sequence (P43367 whole entry): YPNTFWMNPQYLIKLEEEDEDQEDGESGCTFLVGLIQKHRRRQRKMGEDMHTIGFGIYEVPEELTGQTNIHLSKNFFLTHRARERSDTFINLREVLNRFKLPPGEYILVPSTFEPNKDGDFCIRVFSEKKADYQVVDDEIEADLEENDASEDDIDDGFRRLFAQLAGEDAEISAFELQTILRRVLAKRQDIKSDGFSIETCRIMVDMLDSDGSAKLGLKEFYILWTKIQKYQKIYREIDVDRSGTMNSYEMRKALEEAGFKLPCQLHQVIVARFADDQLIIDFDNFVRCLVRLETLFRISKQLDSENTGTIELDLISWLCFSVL

[8] = blockade of melanocortin 4 receptor signaling – cell-based, plate reader, cherry pick, counter-screen for LGR2 antagonist project, dose response (AID 743444); assay type: functional;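 further: transfected HEK 293 cells stimulated with alpha-MSH peptide; potency of inhibitors of the alpha-MSH evoked signal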
[9] = blockers of bursicon-stimulated LGR2 cAMP reporter – cell-based, HEK293, CRE-luciferase reporter, cherry pick, set 2, dose response (AID 743343); assay type: functional;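 further: transfected cells were stimulated with diluted bursicon conditioned medium after compound addition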
[10] = toxicity toward HepG2 liver cells – cell-based, plate reader, cherry-pick, antagonist series, cytotoxicity control, dose response (AID 743416); assay type: functional
[11] = A549 cell cytotoxicity, dose response, cytotoxicity control, plate reader, cherry-pick, antagonist series (AID 743412); assay type: functional, cell-based
cells [12] = assay type: functional, cell-based
cells [13] = assay type: functional, cell-based; remark: listed apart in the source
[14] = target: T2, Type-1 angiotensin II receptor (Homo sapiens, UniProt P30556); assay: agonist activity at AGTR1 – cell-based, uHTS hits, selectivity assay for APJ receptor agonist project, dose response (AID 488865); assay type: functional;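 further: beta-arrestin recruitment to AT1 measured by enzyme fragment complementation luminescence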
T2 sequence (P30556 whole entry): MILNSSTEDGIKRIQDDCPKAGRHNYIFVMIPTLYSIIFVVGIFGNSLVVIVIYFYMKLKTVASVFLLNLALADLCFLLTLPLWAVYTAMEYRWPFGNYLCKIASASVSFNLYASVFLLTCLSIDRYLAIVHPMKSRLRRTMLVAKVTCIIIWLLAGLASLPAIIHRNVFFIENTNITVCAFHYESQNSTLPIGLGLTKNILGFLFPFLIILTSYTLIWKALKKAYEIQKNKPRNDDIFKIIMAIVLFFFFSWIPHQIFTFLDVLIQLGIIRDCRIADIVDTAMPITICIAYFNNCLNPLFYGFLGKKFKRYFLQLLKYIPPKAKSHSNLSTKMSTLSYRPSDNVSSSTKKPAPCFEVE

H9c2 = assay: cells; assay type: functional, cell-based; details: Rattus norvegicus, H9c2, Myocardium;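 further: confirmatory concentration-response retest of ultra-high-throughput screening hits for modulation of myocardial damage; cell death induced by hydrogen peroxide oxidative stress; compound pretreatment for 60 min then peroxide exposure for 2 h; potency is for protecting the cells against peroxide damage rather than for killing them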
[15] = target: G-protein coupled receptor 55 (Homo sapiens, UniProt Q9Y2T6); assay: inhibition of LPI-stimulated GPR55 beta-arrestin translocation – imaging, U2OS, beta-arrestin-GFP, LPI agonist, primary screen (AID 2013); assay type: functional;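 further: antagonist potency measured as reduced agonist-driven arrestin aggregation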
Chain of G-protein coupled receptor 55 (Q9Y2T6 whole entry): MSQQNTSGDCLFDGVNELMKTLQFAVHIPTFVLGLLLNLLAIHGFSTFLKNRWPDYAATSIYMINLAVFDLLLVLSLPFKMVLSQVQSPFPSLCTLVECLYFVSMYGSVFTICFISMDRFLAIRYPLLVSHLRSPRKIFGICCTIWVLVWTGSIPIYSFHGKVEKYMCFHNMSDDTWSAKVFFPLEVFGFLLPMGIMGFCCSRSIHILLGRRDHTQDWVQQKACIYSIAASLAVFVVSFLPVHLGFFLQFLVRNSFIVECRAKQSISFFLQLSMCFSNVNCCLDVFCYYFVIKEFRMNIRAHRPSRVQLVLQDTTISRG

Genome polyprotein = Genome polyprotein (dengue virus type 2, UniProt P29990); assay: flavivirus cap methylation enzyme inhibition – biochemical, confirmation dose response, primary screen (AID 588689); assay type: functional
Chain of Genome polyprotein (P29990 2492-3391 limits assumed): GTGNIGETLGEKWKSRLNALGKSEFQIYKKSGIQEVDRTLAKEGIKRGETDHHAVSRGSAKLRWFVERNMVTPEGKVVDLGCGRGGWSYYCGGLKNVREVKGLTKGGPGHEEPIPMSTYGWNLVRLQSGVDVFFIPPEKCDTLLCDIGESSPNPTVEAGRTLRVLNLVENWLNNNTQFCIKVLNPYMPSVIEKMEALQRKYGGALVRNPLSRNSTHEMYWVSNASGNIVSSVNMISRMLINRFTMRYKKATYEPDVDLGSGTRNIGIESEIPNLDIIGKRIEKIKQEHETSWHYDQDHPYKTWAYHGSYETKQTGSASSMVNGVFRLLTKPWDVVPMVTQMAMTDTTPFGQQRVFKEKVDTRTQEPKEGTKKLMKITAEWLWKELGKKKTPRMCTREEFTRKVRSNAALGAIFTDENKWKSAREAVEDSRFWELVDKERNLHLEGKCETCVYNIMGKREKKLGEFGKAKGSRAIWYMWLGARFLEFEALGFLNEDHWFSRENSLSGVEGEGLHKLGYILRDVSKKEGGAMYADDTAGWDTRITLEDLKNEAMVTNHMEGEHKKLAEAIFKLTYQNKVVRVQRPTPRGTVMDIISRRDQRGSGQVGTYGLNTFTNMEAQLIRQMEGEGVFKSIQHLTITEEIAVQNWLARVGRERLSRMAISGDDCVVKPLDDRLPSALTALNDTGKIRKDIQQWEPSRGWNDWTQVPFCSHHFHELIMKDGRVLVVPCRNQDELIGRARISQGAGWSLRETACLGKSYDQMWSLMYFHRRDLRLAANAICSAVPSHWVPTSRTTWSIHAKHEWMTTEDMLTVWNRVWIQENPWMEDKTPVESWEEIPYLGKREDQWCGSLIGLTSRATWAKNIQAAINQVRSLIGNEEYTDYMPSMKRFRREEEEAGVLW

[16] = Luminescence Cell-Based Dose Retest to Confirm Inhibitors of Cancer Stem Cells. [Related pubchem assays (depositor defined):AID2717, AID2721]; assay type: functional; details: Homo sapiens
[17] = target: FAD-linked sulfhydryl oxidase ALR (Homo sapiens, UniProt P55789); assay: ALR-catalysed DTT oxidation blockers – biochemical, H2O2 detection, luminescence, cherry-pick, dose response (AID 493248)
Chain of FAD-linked sulfhydryl oxidase ALR (P55789 whole entry): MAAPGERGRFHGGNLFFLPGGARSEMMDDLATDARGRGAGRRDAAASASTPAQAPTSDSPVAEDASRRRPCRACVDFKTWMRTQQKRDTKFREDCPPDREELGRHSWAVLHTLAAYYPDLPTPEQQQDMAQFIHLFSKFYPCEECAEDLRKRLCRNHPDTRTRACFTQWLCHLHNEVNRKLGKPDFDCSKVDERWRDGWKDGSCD

[18] = target: T3, High affinity choline transporter 1 (Homo sapiens, UniProt Q9GZV3); assay: human choline transporter blockers, potency – cell-based, 5-point CRC, membrane potential dye, dose response (AID 504840); assay type: functional
T3 sequence (Q9GZV3 whole entry): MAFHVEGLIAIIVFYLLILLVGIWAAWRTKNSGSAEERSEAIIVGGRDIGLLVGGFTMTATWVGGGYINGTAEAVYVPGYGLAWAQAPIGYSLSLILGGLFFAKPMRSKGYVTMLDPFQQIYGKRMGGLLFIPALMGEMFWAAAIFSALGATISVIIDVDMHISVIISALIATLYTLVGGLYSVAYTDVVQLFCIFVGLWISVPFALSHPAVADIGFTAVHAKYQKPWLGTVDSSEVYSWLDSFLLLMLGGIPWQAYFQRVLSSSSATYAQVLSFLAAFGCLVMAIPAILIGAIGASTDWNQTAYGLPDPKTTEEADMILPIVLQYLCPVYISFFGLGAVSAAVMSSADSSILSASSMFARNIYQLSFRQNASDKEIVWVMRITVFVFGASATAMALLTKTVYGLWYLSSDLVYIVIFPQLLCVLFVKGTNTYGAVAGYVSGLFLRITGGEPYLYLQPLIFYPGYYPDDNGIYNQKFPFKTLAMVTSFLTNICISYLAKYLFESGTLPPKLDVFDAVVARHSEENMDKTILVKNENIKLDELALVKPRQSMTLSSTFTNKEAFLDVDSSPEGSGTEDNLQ

Vero = assay: viability of Vero cells under compound – cytotoxicity control for flavivirus capping enzyme inhibitors (AID 588742); assay type: functional; details: Chlorocebus sabaeus
[19] = target: Induced myeloid leukemia cell differentiation protein Mcl-1 (Homo sapiens, UniProt Q07820); assay type: functional
Chain of Induced myeloid leukemia cell differentiation protein Mcl-1 (Q07820 whole entry): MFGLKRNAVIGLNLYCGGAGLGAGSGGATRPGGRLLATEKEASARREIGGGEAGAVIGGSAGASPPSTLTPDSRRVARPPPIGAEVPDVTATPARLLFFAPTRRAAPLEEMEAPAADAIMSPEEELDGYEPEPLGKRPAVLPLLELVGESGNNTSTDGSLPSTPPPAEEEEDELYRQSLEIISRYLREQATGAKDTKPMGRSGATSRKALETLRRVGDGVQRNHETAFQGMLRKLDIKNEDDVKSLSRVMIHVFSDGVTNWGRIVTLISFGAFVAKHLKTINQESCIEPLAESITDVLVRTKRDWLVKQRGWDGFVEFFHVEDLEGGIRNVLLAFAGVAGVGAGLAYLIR

Large T antigen = Large T antigen (Simian virus 40, UniProt P03070); assay type: functional, Betapolyomavirus macacae;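 further: Confirmatory-stage PubChem screen for compounds that inhibit SV40 T antigen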
Chain of Large T antigen (P03070 whole entry): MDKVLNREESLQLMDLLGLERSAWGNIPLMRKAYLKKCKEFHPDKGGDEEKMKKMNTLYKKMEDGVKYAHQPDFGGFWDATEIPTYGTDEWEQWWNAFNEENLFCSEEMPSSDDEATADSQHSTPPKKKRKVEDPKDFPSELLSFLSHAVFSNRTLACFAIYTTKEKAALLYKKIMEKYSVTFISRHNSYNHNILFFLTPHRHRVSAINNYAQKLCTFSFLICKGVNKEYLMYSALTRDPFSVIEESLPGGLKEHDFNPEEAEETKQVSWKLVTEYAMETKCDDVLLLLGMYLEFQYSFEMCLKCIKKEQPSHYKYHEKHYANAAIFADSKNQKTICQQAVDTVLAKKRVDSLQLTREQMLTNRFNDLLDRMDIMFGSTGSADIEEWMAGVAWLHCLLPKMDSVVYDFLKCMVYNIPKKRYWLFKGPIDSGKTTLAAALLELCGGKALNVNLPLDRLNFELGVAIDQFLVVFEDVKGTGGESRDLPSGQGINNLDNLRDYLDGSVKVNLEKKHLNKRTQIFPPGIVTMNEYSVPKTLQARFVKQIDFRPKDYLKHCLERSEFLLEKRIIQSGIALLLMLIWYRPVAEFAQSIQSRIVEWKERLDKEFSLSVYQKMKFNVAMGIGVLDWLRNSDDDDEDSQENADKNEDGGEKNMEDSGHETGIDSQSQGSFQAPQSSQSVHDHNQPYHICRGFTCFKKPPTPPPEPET

[20] = target: Photoreceptor-specific nuclear receptor (Homo sapiens, UniProt Q9Y5X4); assay type: functional;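 further: potency for compounds that break the NR2E3 corepressor complex and count as activators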
Chain of Photoreceptor-specific nuclear receptor (Q9Y5X4 whole entry): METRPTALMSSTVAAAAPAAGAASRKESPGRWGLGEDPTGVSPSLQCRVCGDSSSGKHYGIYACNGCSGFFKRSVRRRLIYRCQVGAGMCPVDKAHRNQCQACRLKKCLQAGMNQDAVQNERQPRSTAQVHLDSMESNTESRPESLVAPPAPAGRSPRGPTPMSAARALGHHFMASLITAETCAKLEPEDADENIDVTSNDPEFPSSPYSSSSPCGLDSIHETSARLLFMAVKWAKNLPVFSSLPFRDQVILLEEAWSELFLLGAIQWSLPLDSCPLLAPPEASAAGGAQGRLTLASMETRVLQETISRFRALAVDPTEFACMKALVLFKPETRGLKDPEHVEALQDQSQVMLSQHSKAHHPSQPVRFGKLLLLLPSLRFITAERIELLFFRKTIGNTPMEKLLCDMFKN

[21] = target: Peroxisome proliferator-activated receptor gamma/Nuclear receptor corepressor 2 (Homo sapiens, UniProt P37231+Q9Y618); assay type: functional

Compound: CC(=O)C1=NN(c2ccccc2)C(c2cccs2)N1c1ccc(N(C)C)cc1 (centres undefined)
EC50 [1]: 0.776 µM (active)
AC50 (INS1): 3.1 µM (active)
IC50 [2]: > 80 µM (inactive)
EC50 [3]: > 60 µM (inconclusive)

Compound: O=C(C1CCC1)N1CCN(c2ccc(Cl)cc2)CC1
AC50 [4]: 13.5 µM (active)

EC50 [5]: > 10 µM (not active)
Compound: CCOc1ccc(-c2noc(-c3ccncc3)n2)cc1OCC

Compound: O=C(Nc1cccc(-c2nc3cccnc3s2)c1)C1c2ccccc2Oc2ccccc21
AC50 (Escherichia coli): 50.5 µM (active)
IC50 [6]: > 64 µM (inactive)
IC50 [7]: 7.46 µM (active)

Compound: CC(C)C(=O)N1CCN(c2ccc(NC(=O)COc3ccccc3[N+](=O)[O-])cc2)CC1
AC50 [8]: 20 µM (active)
AC50 [9]: 31.2 µM (active)
AC50 [10]: 41.7 µM (active)
AC50 [11]: > 52 µM (inactive)
EC50 (cells [12]): > 350 µM (not active)
EC50 (cells [13]): > 350 µM (not active)
EC50 [14]: > 100 µM (inactive)
IC50 (H9c2): > 79 µM (inactive)

Compound: Cc1ccc(N2NC(=O)/C(=C\c3cc4c(cc3[N+](=O)[O-])OCO4)C2=O)cc1C
IC50 [15]: 3.3 µM (active)
IC50 (Genome polyprotein): 27 µM (active)
AC50 [16]: 3.65 µM (active)
AC50 [17]: 0.321 µM (active)
IC50 [18]: 3.98 µM (active)
CC50 (Vero): > 40 µM (active)
IC50 [19]: 4.66 µM (active)
IC50 (Large T antigen): 23 µM (active)

IC50 [15]: 4.55 µM (active)
Compound: C#CCN(CC=C)C(=O)c1ccc2nc(C3CCCCC3)oc2c1

IC50 [20]: > 39.8 µM (not active)
IC50 [21]: 9.36 µM (active)
Compound: Cc1ccc(C(=O)C2=C(O)C(=O)N(Cc3cccnc3)C2c2ccc(Br)cc2)o1 (centres undefined)

Compound: CCOC(=O)/C(C#N)=C/c1ccc(SC)cc1
AC50 [4]: 18.1 µM (active)
